# Columns and labels:
# [1] = from CC(C)[C@H](NC(=O)CC(Sc1ccccc1)[C@H](COC(=O)[C@@H](N)Cc1ccc(O[Si](C)(C)C(C)(C)C)cc1)NC(=O)OC(C)(C)C)C(=O)O; amide bond; FDPP; DMF; 6.97 mM; 20.0 °C; 8.0 h
# Human Calpain 1/NS1 = target: T1, Human Calpain 1/NS1 (Homo sapiens, UniProt P07384); assay: Calpain continuous fluorescence (FRET) inhibition assay; format: biochemical; conditions: Column A; SensoLyte 520 FRET substrate, pH 7.5, 25C
# T1 sequence (P07384 1-714): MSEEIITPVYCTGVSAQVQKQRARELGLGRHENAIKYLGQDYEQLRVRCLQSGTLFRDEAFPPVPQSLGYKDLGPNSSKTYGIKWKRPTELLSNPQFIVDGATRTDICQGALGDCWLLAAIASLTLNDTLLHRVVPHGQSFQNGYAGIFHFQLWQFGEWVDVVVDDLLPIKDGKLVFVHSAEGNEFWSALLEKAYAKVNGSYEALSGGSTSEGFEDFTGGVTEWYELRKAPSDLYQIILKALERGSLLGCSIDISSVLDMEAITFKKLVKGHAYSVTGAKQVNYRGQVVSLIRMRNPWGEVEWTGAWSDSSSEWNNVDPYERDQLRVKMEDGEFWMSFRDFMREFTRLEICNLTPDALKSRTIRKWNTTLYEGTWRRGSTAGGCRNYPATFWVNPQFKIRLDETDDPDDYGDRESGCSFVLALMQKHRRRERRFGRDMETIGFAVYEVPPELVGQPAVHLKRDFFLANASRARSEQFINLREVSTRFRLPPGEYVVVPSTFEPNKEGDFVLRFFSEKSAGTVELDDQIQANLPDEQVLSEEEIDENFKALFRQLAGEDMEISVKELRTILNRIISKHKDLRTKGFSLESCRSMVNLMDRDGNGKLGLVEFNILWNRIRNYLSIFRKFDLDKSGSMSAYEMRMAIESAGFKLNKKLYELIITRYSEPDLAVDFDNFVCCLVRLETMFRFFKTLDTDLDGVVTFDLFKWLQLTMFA
# T1 sequence (P04632 1-268 partner): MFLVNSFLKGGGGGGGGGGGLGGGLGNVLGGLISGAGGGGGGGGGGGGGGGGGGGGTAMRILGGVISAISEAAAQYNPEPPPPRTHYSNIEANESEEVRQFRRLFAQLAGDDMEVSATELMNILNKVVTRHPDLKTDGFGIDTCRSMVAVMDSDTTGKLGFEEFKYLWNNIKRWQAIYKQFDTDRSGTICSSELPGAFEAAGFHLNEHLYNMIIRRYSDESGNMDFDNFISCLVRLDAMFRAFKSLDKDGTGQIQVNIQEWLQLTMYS
# Procedure: (§1) Calpain 1, 2, and 9 activity and inhibition thereof was assessed by means of a continuous fluorescence assay. The SensoLyte 520 Calpain substrate (Anaspec Inc.) was optimized for detecting calpain activity. This substrate contains an internally quenched 5-FAM/QXLTM 520 FRET pair. Calpains 1, 2, and 9 cleave the FRET substrate into two separate fragments resulting in an increase of 5-FAM fluorescence that is proportional to calpain activity
# (§2) Assays were typically setup in black 384-well plates using automated liquid handling as follows. Calpain assay base buffer typically contains 50 mM Tris, pH 7.5, 100 mM NaCl and 1 mM DTT. Inhibitors were serially diluted in DMSO and used to setup 2× mixtures with calpains in the aforementioned buffer. After incubation at ambient temperature (25C), the reaction was initiated by adding a 2× mix of the fluorescent peptide substrate and CaCl2) (required for in-situ calpain activation) in the same buffer. Reaction progress curve data were typically collected for 10 min using excitation/emission wavelengths of 490 nm/520 nm on SpectraMax i3x or the FLIPR-Tetra plate readers (Molecular Devices Inc.). Reaction rates were calculated from progress curve slopes typically over 1-5 min. Dose response curves (rate vs. log inhibitor concentration) were typically fit to a 4-parameter logistic function to extract IC50 values.
# Human Calpain 2/NS1 = target: T2, Human Calpain 2/NS1 (Homo sapiens, UniProt P17655); assay: as above; format: biochemical; conditions: Column B; SensoLyte 520 FRET substrate, pH 7.5, 25C
# T2 sequence (P17655 1-700): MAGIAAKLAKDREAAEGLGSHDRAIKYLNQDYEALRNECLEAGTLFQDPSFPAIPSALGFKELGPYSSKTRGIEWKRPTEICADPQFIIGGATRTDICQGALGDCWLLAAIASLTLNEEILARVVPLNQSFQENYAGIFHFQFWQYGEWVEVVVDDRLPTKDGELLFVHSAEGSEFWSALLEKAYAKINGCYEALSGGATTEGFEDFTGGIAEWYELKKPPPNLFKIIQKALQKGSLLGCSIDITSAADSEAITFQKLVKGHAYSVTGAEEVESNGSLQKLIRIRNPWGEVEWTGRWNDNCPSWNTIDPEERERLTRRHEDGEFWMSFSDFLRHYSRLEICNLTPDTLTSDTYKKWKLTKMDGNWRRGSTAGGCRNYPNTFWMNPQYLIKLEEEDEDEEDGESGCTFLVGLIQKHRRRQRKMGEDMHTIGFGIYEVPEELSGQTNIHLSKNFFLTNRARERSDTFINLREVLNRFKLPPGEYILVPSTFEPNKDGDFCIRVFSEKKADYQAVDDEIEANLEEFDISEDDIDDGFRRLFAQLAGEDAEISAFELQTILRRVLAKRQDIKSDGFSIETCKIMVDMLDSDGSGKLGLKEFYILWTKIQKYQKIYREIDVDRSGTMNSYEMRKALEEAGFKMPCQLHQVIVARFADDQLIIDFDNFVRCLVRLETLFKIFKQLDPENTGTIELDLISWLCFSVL
# T2 sequence (P04632 1-268 partner): T1 sequence (P04632 1-268 partner)
# Procedure: as §1, §2
# Human Calpain 9/NS1 = target: T3, Human Calpain 9/NS1 (Homo sapiens, UniProt O14815); assay: as above; format: biochemical; conditions: Column C; SensoLyte 520 FRET substrate, pH 7.5, 25C
# T3 sequence (O14815 1-690): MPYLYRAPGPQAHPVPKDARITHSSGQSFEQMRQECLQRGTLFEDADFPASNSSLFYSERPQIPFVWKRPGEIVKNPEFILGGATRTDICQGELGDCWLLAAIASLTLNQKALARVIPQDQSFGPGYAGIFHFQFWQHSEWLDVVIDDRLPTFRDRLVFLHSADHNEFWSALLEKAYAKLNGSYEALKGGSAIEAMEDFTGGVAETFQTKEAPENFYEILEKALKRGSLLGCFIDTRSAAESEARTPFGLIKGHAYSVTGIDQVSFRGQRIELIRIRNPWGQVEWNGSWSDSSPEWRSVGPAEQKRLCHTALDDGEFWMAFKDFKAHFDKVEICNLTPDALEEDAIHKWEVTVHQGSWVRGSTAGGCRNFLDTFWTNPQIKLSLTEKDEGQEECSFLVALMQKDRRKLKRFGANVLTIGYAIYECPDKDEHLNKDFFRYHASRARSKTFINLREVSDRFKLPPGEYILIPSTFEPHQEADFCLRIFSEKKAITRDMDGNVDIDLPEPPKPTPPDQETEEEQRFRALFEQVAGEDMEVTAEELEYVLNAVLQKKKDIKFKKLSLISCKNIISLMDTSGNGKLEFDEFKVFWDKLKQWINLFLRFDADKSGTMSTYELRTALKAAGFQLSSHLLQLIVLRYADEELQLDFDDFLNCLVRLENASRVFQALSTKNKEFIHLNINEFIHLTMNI
# T3 sequence (P04632 1-268 partner): T1 sequence (P04632 1-268 partner)
# Procedure: as §1, §2
# Human Cathepsin B = target: T4, Human Cathepsin B (Homo sapiens, UniProt P07858); assay: Cathepsin continuous fluorescence inhibition assay; format: biochemical; conditions: Column D; enzyme 25 nM, substrate 1 uM, pH 5.0, 30 minutes pre-incubation with inhibitor
# T4 construct: purchased
# Procedure: (§3) Cathepsin activity and inhibition thereof was assessed by means of a continuous fluorescence assay. All assays were run in 384 well format and utilized peptide substrates that liberate fluorescence upon protease catalyzed cleavage. FLIPR plate readers (Molecular Devices Inc.) were used to monitor reactions and extract initial rates which were then fit (four parameter logistic function) to obtain IC50 values. All enzymes are human. All enzymes and reagents were obtained commercially and are summarized in Tables 1 and 2 below along with assay conditions.
# Human Cathepsin K = target: T5, Human Cathepsin K (Homo sapiens, UniProt P43235); assay: Cathepsin continuous fluorescence inhibition assay; format: biochemical; conditions: Column E; enzyme 10 nM, substrate 1 uM, pH 5.5, 30 minutes pre-incubation with inhibitor
# T5 construct: purchased
# T5 sequence (P43235 115-329): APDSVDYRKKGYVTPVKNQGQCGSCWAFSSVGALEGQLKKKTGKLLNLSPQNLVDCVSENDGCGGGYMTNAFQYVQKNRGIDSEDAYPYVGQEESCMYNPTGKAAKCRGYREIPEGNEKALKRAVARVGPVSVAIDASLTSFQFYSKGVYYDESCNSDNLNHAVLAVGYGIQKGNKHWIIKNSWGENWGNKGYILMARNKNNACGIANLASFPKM
# Procedure: as §3
# Human Cathepsin L = target: T6, Human Cathepsin L (Homo sapiens, UniProt P07711); assay: Cathepsin continuous fluorescence inhibition assay; format: biochemical; conditions: Column G; enzyme 0.025 nM, substrate 1 uM, pH 6.0, 30 minutes pre-incubation with inhibitor
# T6 construct: purchased
# Procedure: as §3
# Human Cathepsin S = target: T7, Human Cathepsin S (Homo sapiens, UniProt P25774); assay: Cathepsin continuous fluorescence inhibition assay; format: biochemical; conditions: Column F; enzyme 6 nM, substrate 1 uM, pH 4.5, 30 minutes pre-incubation with inhibitor
# T7 construct: purchased
# Procedure: as §3
# T6 sequence (P07711 114-333): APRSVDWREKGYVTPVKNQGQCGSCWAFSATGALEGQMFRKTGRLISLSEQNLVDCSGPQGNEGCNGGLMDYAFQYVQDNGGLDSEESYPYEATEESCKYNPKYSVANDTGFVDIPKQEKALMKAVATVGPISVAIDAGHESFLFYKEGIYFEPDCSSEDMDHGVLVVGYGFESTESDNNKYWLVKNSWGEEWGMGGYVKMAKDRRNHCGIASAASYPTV
# T7 sequence (P25774 115-331): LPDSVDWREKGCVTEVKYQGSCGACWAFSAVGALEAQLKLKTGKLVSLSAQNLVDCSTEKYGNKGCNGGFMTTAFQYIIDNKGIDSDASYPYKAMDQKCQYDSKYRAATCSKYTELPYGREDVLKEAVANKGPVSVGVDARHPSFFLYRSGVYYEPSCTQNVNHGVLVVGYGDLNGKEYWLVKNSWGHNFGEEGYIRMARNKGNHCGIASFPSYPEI
Structure (SMILES),IC50 (Human Calpain 1/NS1) [µM],IC50 (Human Calpain 2/NS1) [µM],IC50 (Human Calpain 9/NS1) [µM],IC50 (Human Cathepsin B) [µM],IC50 (Human Cathepsin K) [µM],IC50 (Human Cathepsin L) [µM],IC50 (Human Cathepsin S) [µM],"ring closure, yield of all isomers [1] [%]"
CC(C)[C@@H]1NC(=O)CC(Sc2ccccc2)[C@@H](NC(=O)OC(C)(C)C)COC(=O)[C@H](Cc2ccc(O[Si](C)(C)C(C)(C)C)cc2)NC1=O (some centres unmarked),–,–,–,–,–,–,–,39.4
"CC(C)[C@@H]1NC(=O)/C=C/[C@@H](NC(=O)OC(C)(C)C)COC(=O)[C@H](Cc2ccccc2)NC1=O [Compound 5, Tert-butyl ((3S,6S,11R,E)-3-benzyl-6-isopropyl-2,5,8-trioxo-1-oxa-4,7-diazacyclododec-9-en-11-yl)carbamate]",> 10,> 10,> 10,3 to 10,< 3,< 3,< 3,–
"CC(C)[C@@H]1NC(=O)/C=C/[C@@H](NC(=O)[C@@H](NC(=O)OCc2ccccc2)C(C)C)COC(=O)[C@H](Cc2ccc(O)cc2)NC1=O [Compound 9, Benzyl ((s)-1-(((3S,6S,11R,E)-3-(4-hydroxybenzyl)-6-isopropyl-2,5,8-trioxo-1-oxa-4,7-diazacyclododec-9-en-11-yl)amino)-3-methyl-1-oxobutan-2-yl)carbamate]",3 to 10,< 3,> 10,< 3,< 3,< 3,< 3,–

# The next lines start with results.
IC50 (Human Calpain 1/NS1) [µM],IC50 (Human Calpain 2/NS1) [µM],IC50 (Human Calpain 9/NS1) [µM],IC50 (Human Cathepsin B) [µM],IC50 (Human Cathepsin K) [µM],IC50 (Human Cathepsin L) [µM],IC50 (Human Cathepsin S) [µM],Structure (SMILES),"ring closure, yield of all isomers [1] [%]"
< 3,< 3,> 10,< 3,< 3,< 3,< 3,"CCCCCC/C=C\CC(=O)N[C@@H](Cc1ccc(O)cc1)C(=O)N[C@H](C(=O)N[C@@H]1/C=C/C(=O)N[C@@H](C(C)C)C(=O)N[C@@H](C)C(=O)OC1)C(C)C [Compound 16, (Z)—N—((S)-3-(4-hydroxyphenyl)-1-(((S)-1-(((3S,6S,11R,E)-6-isopropyl-3-methyl-2,5,8-trioxo-1-oxa-4,7-diazacyclododec-9-en-11-yl)amino)-3-methyl-1-oxobutan-2-yl)amino)-1-oxopropan-2-yl)dec-3-enamide]",–
> 10,> 10,> 10,3 to 10,< 3,< 3,< 3,"CC(C)[C@@H]1NC(=O)/C=C/[C@@H](NC(=O)OC(C)(C)C)COC(=O)[C@H](C)NC1=O [Compound 15, tert-butyl ((3S,6S,11R,E)-6-isopropyl-3-methyl-2,5,8-trioxo-1-oxa-4,7-diazacyclododec-9-en-11-yl)carbamate]",–

# — patent US20210253642A1, “CALPAIN MODULATORS AND THERAPEUTIC USES THEREOF BACKGROUND” (Blade Therapeutics, Inc., priority 2018, published 2021)
